Laboratory results from article PMC3454376, “Salidroside Improves Behavioral and Histological Outcomes and Reduces Apoptosis via PI3K/Akt Signaling after Experimental Traumatic Brain Injury” (PLoS ONE, 2012).

How the values were obtained:
[1] = tested on: mice subjected to controlled cortical impact injury; test: Residual cerebral tissue ratio, cresyl violet staining; assay type: in vivo; details: day 28; for preservation of brain tissue (ipsilateral/contralateral hemisphere volume): vehicle 76.4±3.3%, P<0.05
Protocol: All animal procedures were approved by the Animal Research Committee at Cheng Hsin General Hospital (Animal permit number CHIACUC 101–08), and all procedures complied with the Guide for the Care and Use of Laboratory Animals published by the US National Institutes of Health (NIH Publication No. 85–23, revised 1996). Animals were housed under a 12-h light/dark cycle and at constant temperature (21–25°C) and humidity (45–50%). They were allowed free access to pellet chow and water. TBI in mice was induced by a CCI injury model as previously described. Briefly, 8-week-old male C57BL/6 mice (weighing 22–25 g) were anesthetized through the use of intraperitoneal injection of sodium pentobarbital (65 mg/kg; Rhone Merieux, Harlow, UK) and placed in a stereotaxic frame. A 5 mm craniotomy was performed over the right parietal cortex, centered on the coronal suture and 0.1 mm lateral to the sagittal suture, and injury to dura was avoided. Injury was induced using a pneumatic piston with a rounded metal tip (2.5 mm diameter) that was angled 22.5° to the vertical so that the tip was perpendicular with the brain surface at the center of the craniotomy. The impact, with a velocity of […] and a deformation depth of 2 mm below the dura, was applied. The bone flap was immediately replaced and sealed, and the scalp was sutured. Body temperature was monitored throughout the surgery by a rectal probe; temperature was maintained at 37.0±0.5°C using a heated pad. Mice were placed in a heated cage to maintain body temperature, while recovering from anesthesia. Sham-operated mice underwent the same procedure as injured mice, but without CCI.
Mice were anesthetized and positioned in a stereotaxic frame. LY294002 (200 nM in 0.5 µL of saline) or equal amount of physiological saline was intracerebroventricularly (icv) injected at 30 min before CCI as previously described. A 1 mm cranial burr hole was drilled into the skull. A 30-gauge needle on a Hamilton syringe was implanted into the lateral ventricle using stereotactic coordinates: 1.5 mm posterior to bregma and 1.0 mm right lateral to the midline, 2 mm in depth. LY294002 or saline was infused into the brain at a rate of 0.05 µL/min over 10 min with an infusion pump (KDS 310, KD Scientific Inc., Holliston, MA, USA), and the needle was left in place for an additional 20 min to prevent reflux. After the needle was removed, CCI procedure was conducted immediately. Sham-operated mice were infused icv with saline, but were not subjected to CCI.
Three sets of experiments were performed. […] To determine the optimal dose of salidroside, a pilot study was performed using 2 different doses (20 and 50 mg/kg) administered 10 min after injury, and neurological deficits and tissue damage were evaluated as the main outcomes. […]

Body weight after CCI = assay type: in vivo, mice; details: P>0.05

OC[C@H]1O[C@@H](OCCc2ccc(O)cc2)[C@H](O)[C@@H](O)[C@@H]1O [SALD, salidroside]
preservation of brain tissue (ipsilateral/contralateral hemisphere volume) ([1]; 20 mg/kg ip 10 min after CCI): 81.9±2.6% | preservation of brain tissue (ipsilateral/contralateral hemisphere volume) ([1]; 50 mg/kg ip 10 min after CCI): 80.7±2.8% | residual cerebral tissue ratio ([1]; icv saline 30 min before CCI, then SALD 20 mg/kg ip (S20S group)): 80.5±5.8% | body weight versus vehicle (Body weight after CCI; 20 mg/kg ip after CCI): No significant difference | body weight versus vehicle (Body weight after CCI; 50 mg/kg ip after CCI): No significant difference
